One assay has as its target ITK (Homo sapiens (Human), UniProt Q08881). The experiment in a line: ITK kinase assay (radiometric filter binding, 10 μM ATP). The class given is biochemical. The protocol:
(§1) All additions were done on ice, followed by the addition of ATP mix. Wells were uniformly mixed using an Eppendorff plate shaker and incubated at 30° C. for 20 min, and stopped by the addition of 5 μL of 3% phosphoric acid. Volume was increased to 100 μL by adding 0.8% phosphoric acid which was then transferred to PC filter mats (Millipore), pre-equilibrated with 70% ethanol and water. Plates were washed thrice with 100 μL 0.8% phosphoric acid and dried for an hour at 60° C. 100 μL scintillation fluid was added into each well and reading taken in Perkin Elmer TOPCOUNT beta counter.
(§2) The reactions were carried out at 10 μM ATP for ITK, JAK3 and other TEC and Janus family of kinase.

A further assay has as its target JAK3 (Homo sapiens (Human), UniProt P52333). The experiment in a line: JAK3 kinase assay (radiometric filter binding, 10 μM ATP). The class given is biochemical. The method, then:
as §1, §2

Where [1] appears, read: 10-dose IC50 mode, 10 μM ATP, read-out: ITK kinase inhibition.
[2] abbreviates: 10-dose IC50 mode, 10 μM ATP, read-out: JAK3 kinase inhibition.
The mark [3] stands for this setting: read-out: biochemical IC50 against ITK.
[4] abbreviates: read-out: biochemical IC50 against JAK3.

pIC50: −log10 of the molar value. Where two headings read alike, the source gives them in different places. Some results are limits rather than exact numbers.

JAK3, sequence (P52333 whole entry): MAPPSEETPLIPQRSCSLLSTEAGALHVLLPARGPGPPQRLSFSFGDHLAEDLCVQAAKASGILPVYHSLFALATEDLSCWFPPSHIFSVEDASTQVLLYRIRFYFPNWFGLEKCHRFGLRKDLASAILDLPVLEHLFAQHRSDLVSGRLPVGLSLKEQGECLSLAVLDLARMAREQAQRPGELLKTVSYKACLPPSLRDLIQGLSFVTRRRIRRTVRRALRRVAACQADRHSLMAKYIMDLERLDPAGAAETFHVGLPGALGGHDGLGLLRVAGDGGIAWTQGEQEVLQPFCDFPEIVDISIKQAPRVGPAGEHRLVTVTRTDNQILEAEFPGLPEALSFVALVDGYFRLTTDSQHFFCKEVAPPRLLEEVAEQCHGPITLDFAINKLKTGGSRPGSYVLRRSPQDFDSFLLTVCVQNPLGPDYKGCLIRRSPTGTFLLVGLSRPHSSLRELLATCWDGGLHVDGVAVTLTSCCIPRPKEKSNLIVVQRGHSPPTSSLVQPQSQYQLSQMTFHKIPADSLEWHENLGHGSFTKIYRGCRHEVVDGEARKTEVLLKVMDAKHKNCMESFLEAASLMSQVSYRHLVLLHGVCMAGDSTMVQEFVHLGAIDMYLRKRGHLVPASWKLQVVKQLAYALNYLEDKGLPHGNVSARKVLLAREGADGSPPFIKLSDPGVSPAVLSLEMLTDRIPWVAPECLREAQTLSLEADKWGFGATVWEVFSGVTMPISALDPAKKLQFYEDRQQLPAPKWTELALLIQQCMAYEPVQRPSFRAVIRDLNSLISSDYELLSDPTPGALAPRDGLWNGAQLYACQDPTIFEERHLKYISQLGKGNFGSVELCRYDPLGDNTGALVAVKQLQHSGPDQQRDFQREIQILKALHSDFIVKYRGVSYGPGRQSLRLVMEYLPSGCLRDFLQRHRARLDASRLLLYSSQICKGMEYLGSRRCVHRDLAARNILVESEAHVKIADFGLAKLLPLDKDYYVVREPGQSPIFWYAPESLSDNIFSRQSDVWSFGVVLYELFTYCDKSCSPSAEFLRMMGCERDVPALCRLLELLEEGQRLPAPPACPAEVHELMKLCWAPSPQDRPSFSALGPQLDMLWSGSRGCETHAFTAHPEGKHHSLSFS
ITK, sequence (Q08881 whole entry): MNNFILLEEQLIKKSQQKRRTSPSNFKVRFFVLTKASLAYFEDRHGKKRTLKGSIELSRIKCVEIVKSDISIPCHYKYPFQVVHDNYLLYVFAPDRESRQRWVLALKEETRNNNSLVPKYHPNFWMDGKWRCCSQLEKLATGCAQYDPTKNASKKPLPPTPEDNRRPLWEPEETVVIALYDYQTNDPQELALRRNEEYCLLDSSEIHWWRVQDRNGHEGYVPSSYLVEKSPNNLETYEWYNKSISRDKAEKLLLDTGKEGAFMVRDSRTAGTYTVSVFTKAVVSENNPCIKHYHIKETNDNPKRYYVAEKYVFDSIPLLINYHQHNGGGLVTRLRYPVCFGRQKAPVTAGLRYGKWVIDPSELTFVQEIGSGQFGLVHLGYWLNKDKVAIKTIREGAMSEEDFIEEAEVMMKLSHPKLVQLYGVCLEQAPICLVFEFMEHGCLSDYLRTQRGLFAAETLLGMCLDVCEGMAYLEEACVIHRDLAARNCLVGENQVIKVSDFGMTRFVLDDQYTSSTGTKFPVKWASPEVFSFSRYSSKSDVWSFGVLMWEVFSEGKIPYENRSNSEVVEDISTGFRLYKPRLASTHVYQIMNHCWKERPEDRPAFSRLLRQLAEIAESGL

In the case of `C=CC(=O)Nc1cccc(-c2cnc3[nH]cc(-c4cccc(S(=O)(=O)N(C)C)c4)c3c2)c1` [Example 34, N-(3-(3-(3-(N,N-dimethylsulfamoyl)phenyl)-1H-pyrrolo[2,3-b]pyridin-5-yl)phenyl)acrylamide], the pIC50 on ITK (setting [1]) and on JAK3 (setting [2]) was less than 7.00 throughout.

`C#CC(=O)Nc1cccc(-c2cnc3[nH]ccc3c2)n1` [Example 77, N-(6-(1H-pyrrolo[2,3-b]pyridin-5-yl)pyridin-2-yl)propiolamide]: the pIC50 at ITK (setting [1]) and at JAK3 (setting [2]) was greater than 7.00 throughout.

In the case of `C#CC(=O)Nc1cccc(-c2cnc3[nH]cc(-c4cc(F)cc(F)c4OC)c3c2)c1` [Example 98, N-(3-(3-(3,5-difluoro-2-methoxyphenyl)-1H-pyrrolo[2,3-b]pyridin-5-yl)phenyl)propiolamide], the pIC50 on ITK (setting [1]) and on JAK3 (setting [2]) was less than 7.00 each time.

For `C=CC(=O)Nc1cccc(-c2cnc3[nH]cc(-c4cccc(S(C)(=O)=O)c4)c3c2)c1` [Example 35, N-(3-(3-(3-(methylsulfonyl)phenyl)-1H-pyrrolo[2,3-b]pyridin-5-yl)phenyl)acrylamide], the pIC50 on ITK (setting [1]) and on JAK3 (setting [2]) was less than 7.00 in each case.

As for `CCC#CC(=O)Nc1cccc(-c2cnc3[nH]cc(-c4cccc(S(=O)(=O)N(C)C(C)(C)C)c4)c3c2)c1` [Example 32, N-(3-(3-(3-(N-(tert-butyl)-N-methylsulfamoyl)phenyl)-1H-pyrrolo[2,3-b]pyridin-5-yl)phenyl)pent-2-ynamide], the pIC50 on ITK (setting [1]) was less than 7.00; on JAK3 (setting [2]), greater than 7.00.

Consider `COc1cc(F)c(C)cc1-c1c[nH]c2ncc(-c3cc(F)cc(NC(=O)/C=C/CN(C)C)c3C)cc12` [Example 172, (E)-4-(dimethylamino)-N-(5-fluoro-3-(3-(4-fluoro-2-methoxy-5-methylphenyl)-1H-pyrrolo[2,3-b]pyridin-5-yl)-2-methylphenyl)but-2-enamide], for which the pIC50 at ITK (setting [1]) and on JAK3 (setting [2]) was greater than 7.00 each time.

With “(E)-N-(3-(3-methyl-1H- pyrazolo[3,4-b]pyridin-5- yl)phenyl)acrylamide [Example 51]”, the pIC50 at ITK (read-out: ITK kinase inhibition) and on JAK3 (read-out: JAK3 kinase inhibition) was less than 7.00 each time.

For the compound `CCC#CC(=O)Nc1cccc(-c2cnc3[nH]cc(Cl)c3c2)c1` [Example 21, N-(3-(3-chloro-1H-pyrrolo[2,3-b]pyridin-5-yl)phenyl)pent-2-ynamide], the pIC50 at ITK (setting [1]) and at JAK3 (setting [2]) was greater than 7.00 in each case.

For `CCC#CC(=O)Nc1cccc(-c2cnc3[nH]cc(-c4cc(F)cc(F)c4OC)c3c2)c1` [Example 37, N-(3-(3-(3,5-difluoro-2-methoxyphenyl)-1H-pyrrolo[2,3-b]pyridin-5-yl)phenyl)pent-2-ynamide], the pIC50 on ITK (setting [1]) and at JAK3 (setting [2]) was less than 7.00 each time.

Regarding `C=CC(=O)Nc1cccc(-c2cnc3[nH]cc(-c4cc(F)cc(F)c4OC)c3c2)c1` [Example 30, N-(3-(3-(3,5-difluoro-2-methoxyphenyl)-1H-pyrrolo[2,3-b]pyridin-5-yl)phenyl)acrylamide], the pIC50 on ITK (setting [1]) and at JAK3 (setting [2]) was greater than 7.00 in each case.

With `Cc1c[nH]c2ncc(-c3cccc(NC(=O)C4CCCN4)c3)cc12` (centres unmarked) [Example 71, N-(3-(3-methyl-1H-pyrrolo[2,3-b]pyridin-5-yl)phenyl)pyrrolidine-2-carboxamide], the pIC50 at ITK (setting [1]) and at JAK3 (setting [2]) was less than 7.00 throughout.

Consider `C=CC(=O)Nc1cccc(-c2cnc3[nH]cc(-c4cccc(S(=O)(=O)N(C)C(C)(C)C)c4)c3c2)c1` [Example 27, N-(3-(3-(3-(N-(tert-butyl)-N-methylsulfamoyl)phenyl)-1H-pyrrolo[2,3-b]pyridin-5-yl)phenyl)acrylamide], for which the pIC50 at ITK (setting [1]) and on JAK3 (setting [2]) was greater than 7.00 throughout.

Consider `C#CC(=O)Nc1cccc(-c2cnc3[nH]cc(-c4cccc(S(=O)(=O)N(C)C(C)(C)C)c4)c3n2)c1` [Example 95, N-(3-(7-(3-(N-(tert-butyl)-N-methylsulfamoyl)phenyl)-5H-pyrrolo[2,3-b]pyrazin-2-yl)phenyl)propiolamide], for which the pIC50 on ITK (setting [1]) and at JAK3 (setting [2]) was less than 7.00 in each case.

`CC#CC(=O)Nc1cccc(-c2cnc3[nH]cc(C)c3c2)n1` [Example 91, N-(6-(3-methyl-1H-pyrrolo[1,3-b]pyridin-5-yl)pyridin-2-yl)but-2-ynamide]: the pIC50 on ITK (setting [1]) and on JAK3 (setting [2]) was greater than 7.00 in each case.

Regarding `C=CC(=O)Nc1cccc(-c2cnc3[nH]cc(-c4cc(C)c(F)cc4OC)c3c2)c1` [Example 140, N-(3-(3-(4-fluoro-2-methoxy-5-methylphenyl)-1H-pyrrolo[2,3-b]pyridin-5-yl)phenyl)acrylamide], the pIC50 on ITK (setting [1]) was less than 6.00; at JAK3 (setting [2]), less than 7.00.

On to `CCC#CC(=O)Nc1cccc(-c2cnc3[nH]cc(-c4cccc(S(=O)(=O)N(C)C(C)(C)C)c4)c3n2)c1` [Example 96, N-(3-(7-(3-(N-(tert-butyl)-N-methylsulfamoyl)phenyl)-5H-pyrrolo[2,3-b]pyrazin-2-yl)phenyl)pent-2-ynamide], for which the pIC50 on ITK (setting [1]) and on JAK3 (setting [2]) was less than 7.00 each time.

For `C=CC(=O)Nc1cc(-c2cnc3[nH]cc(C)c3c2)ccc1Cl` [Example 15, N-(2-chloro-5-(3-methyl-1H-pyrrolo[2,3-b]pyridin-5-yl)phenyl)acrylamide], the pIC50 at ITK (setting [1]) and on JAK3 (setting [2]) was less than 7.00 each time.

For `C=CC(=O)Nc1cccc(-c2cnc3[nH]cc(-c4cc5ccccc5[nH]4)c3n2)c1` [Example 5, N-(3-(7-(1H-indol-2-yl)-5H-pyrrolo[2,3-b]pyrazin-2-yl)phenyl)acrylamide], the pIC50 on ITK (setting [3]) and at JAK3 (setting [4]) was 6.00 to 7.00 in each case.

For the compound `C=CC(=O)Nc1cc(-c2cnc3[nH]ccc3c2)cc(F)c1F` [Example 63, N-(2,3-difluoro-5-(1H-pyrrolo[2,3-b]pyridin-5-yl)phenyl)acrylamide], the pIC50 on ITK (setting [1]) is less than 6.00; at JAK3 (setting [2]), less than 7.00.

On to `C#CC1(C(=O)Nc2cccc(-c3cnc4[nH]cc(Cl)c4c3)c2)CC1` [Example 16, N-(3-(3-chloro-1H-pyrrolo[2,3-b]pyridin-5-yl)phenyl)-1-ethynylcyclopropanecarboxamide], for which the pIC50 on ITK (setting [1]) was less than 6.00; on ITK (setting [3]), 6.00 to 7.00; on JAK3 (setting [2]), greater than 7.00; at JAK3 (setting [4]), 6.00 to 7.00.

With `C=CC(=O)Nc1cccc(-c2cnc3[nH]cc(C)c3c2)c1` [Example 8, N-(3-(3-methyl-1H-pyrrolo[2,3-b]pyridin-5-yl)phenyl)acrylamide], the pIC50 on ITK (setting [3]) and at JAK3 (setting [4]) was 6.00 to 7.00 in each case.

`CCC#CC(=O)Nc1cc(-c2cnc3[nH]cc(Cl)c3c2)ccc1F` [Example 86, N-(5-(3-chloro-1H-pyrrolo[2,3-b]pyridin-5-yl)-2-fluorophenyl)pent-2-ynamide]: the figures for the pIC50 on ITK (setting [1]) and at JAK3 (setting [2]) were less than 7.00 and greater than 7.00, respectively.

Turning to `CCC#CC(=O)Nc1cccc(-c2cnc3[nH]ccc3c2)n1` [Example 78, N-(6-(1H-pyrrolo[2,3-b]pyridin-5-yl)pyridin-2-yl)pent-2-ynamide], the pIC50 at ITK (setting [1]) and on JAK3 (setting [2]) was greater than 7.00 in each case.

Take `C=CC(=O)Nc1cccc(-c2cnc3[nH]cc(-c4cc(F)cc(F)c4OC)c3c2)n1` [Example 42, N-(6-(3-(3,5-difluoro-2-methoxyphenyl)-1H-pyrrolo[2,3-b]pyridin-5-yl)pyridin-2-yl)acrylamide]: the pIC50 on ITK (setting [1]) and on JAK3 (setting [2]) was less than 7.00 throughout.

On to `C=CC(=O)Nc1cccc(-c2cnc3[nH]cc(-c4cc5ccccc5[nH]4)c3c2)c1` [Example 66, N-(3-(3-(1H-indol-2-yl)-1H-pyrrolo[2,3-b]pyridin-5-yl)phenyl)acrylamide], for which the pIC50 was greater than 7.00 at ITK (setting [1]), 6.00 to 7.00 at ITK (setting [3]), greater than 7.00 on JAK3 (setting [2]) and 6.00 to 7.00 on JAK3 (setting [4]).

As to `C=CC(=O)Nc1cccc(-c2cnc3[nH]cc(-c4cccc(C(=O)OCC)c4)c3c2)c1` [Example 29, ethyl 3-(5-(3-acrylamidophenyl)-1H-pyrrolo[2,3-b]pyridin-3-yl)benzoate], the pIC50 at ITK (setting [1]) and at JAK3 (setting [2]) was greater than 7.00 in each case.

For `CC/C=C/C(=O)Nc1cc(-c2cnc3[nH]nc(C)c3c2)ccc1Cl` [Example 52, (E)-N-(2-chloro-5-(3-methyl-1H-pyrazolo[3,4-b]pyridin-5-yl)phenyl)pent-2-enamide], the pIC50 at ITK (setting [1]) and at JAK3 (setting [2]) was less than 6.00 in each case.

In the case of `C=CC(=O)Nc1cccc(-c2cnc3[nH]nc(C)c3c2)c1` [Example 1, N-(3-(3-methyl-1H-pyrazolo[3,4-b]pyridin-5-yl)phenyl)acrylamide], the pIC50 on ITK (setting [1]) and on JAK3 (setting [2]) was less than 6.00 throughout.

For the compound `N#CCc1cccc(Nc2cnc3[nH]cc(Cl)c3c2)c1` [Example 53, 2-(3-((3-chloro-1H-pyrrolo[2,3-b]pyridin-5-yl)amino)phenyl)acetonitrile], the pIC50 at ITK (setting [1]) and on JAK3 (setting [2]) was less than 6.00 each time.

Consider `C#CC(=O)Nc1cccc(-c2cnc3[nH]cc(Cl)c3c2)c1` [Example 20, N-(3-(3-chloro-1H-pyrrolo[2,3-b]pyridin-5-yl)phenyl)propiolamide], for which the pIC50 on ITK (setting [1]) and at JAK3 (setting [2]) was greater than 7.00 throughout.

As to `Cc1c[nH]c2ncc(-c3cccc(NC(=O)CF)c3)cc12` [Example 25, 2-fluoro-N-(3-(3-methyl-1H-pyrrolo[2,3-b]pyridin-5-yl)phenyl)acetamide], the pIC50 was less than 6.00 at ITK (setting [1]) and greater than 7.00 at JAK3 (setting [2]).

Regarding `C=CC(=O)Nc1cccc(-c2cnc3[nH]cc(-c4cc5ccccc5[nH]4)c3c2)c1` [Example 74, N-(3-(3-(1H-indol-2-yl)-1H-pyrrolo[2,3-b]pyridin-5-yl)phenyl)acrylamide], the results for the pIC50 on ITK (setting [1]) and on JAK3 (setting [2]) were less than 6.00 and less than 7.00, respectively.
